In US20240246967A1, “AXL COMPOUNDS” (ARCUS BIOSCIENCES, INC., priority 2021, published 2024):

Assays:
Axl [1] = target: T1, Axl (Homo sapiens, UniProt P30530); assay: HTRF KinEASE-TK biochemical potency assay, AXL; parameters: purchased Invitrogen; conditions: 5 nM AXL, 700 μM ATP, 800 nM TK Substrate-biotin
T1 sequence (P30530 26-894): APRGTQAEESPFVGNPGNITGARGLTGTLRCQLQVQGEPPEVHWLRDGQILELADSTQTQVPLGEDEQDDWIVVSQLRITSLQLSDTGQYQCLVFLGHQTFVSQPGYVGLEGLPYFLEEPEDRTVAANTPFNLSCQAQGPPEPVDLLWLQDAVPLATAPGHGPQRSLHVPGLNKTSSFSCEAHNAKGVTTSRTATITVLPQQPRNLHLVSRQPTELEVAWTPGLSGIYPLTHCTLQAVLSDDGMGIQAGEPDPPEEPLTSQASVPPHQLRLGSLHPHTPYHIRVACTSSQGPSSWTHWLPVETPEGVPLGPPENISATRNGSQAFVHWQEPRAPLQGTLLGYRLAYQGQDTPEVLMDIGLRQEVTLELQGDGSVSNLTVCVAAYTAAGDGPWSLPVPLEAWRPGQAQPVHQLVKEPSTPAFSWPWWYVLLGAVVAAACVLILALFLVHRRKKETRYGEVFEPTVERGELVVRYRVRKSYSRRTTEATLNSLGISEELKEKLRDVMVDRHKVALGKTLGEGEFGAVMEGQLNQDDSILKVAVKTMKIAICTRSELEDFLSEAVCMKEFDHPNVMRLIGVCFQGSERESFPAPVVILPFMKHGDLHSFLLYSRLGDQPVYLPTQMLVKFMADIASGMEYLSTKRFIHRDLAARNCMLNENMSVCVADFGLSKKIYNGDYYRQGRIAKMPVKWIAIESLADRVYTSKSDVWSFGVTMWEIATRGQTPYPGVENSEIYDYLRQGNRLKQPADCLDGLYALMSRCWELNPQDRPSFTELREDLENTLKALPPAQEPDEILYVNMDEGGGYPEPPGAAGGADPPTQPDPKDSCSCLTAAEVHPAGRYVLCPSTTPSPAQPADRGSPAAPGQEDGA
Summary of the method: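 HTRF 665/620 nm read-out after streptavidin-XL665/anti-phosphotyrosine cryptate detection (1 h RT). Final reaction: 5 nM AXL or 1 nM TYRO3/MER, 800 nM TK substrate-biotin, 700 μM ATP, pH 7.4 HEPES buffer, 1% DMSO, 2 h RT, after 1 h enzyme–compound preincubation.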

Axl [2] = target: T1, Axl; assay: Axl NanoBRET intracellular kinase assay (intracellular binding, Cell Binding); parameters: host or cells: HEK-293; conditions: HEK-293 cells transfected with Axl-NanoLuc fusion vector; 0.35 μM K-5 NanoBRET tracer
Summary of the method: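 HEK-293 cells transiently transfected with Axl-NanoLuc fusion the day before were pre-incubated with compound for 1 h at 37 °C, 5% CO2 (0.5% DMSO), then with 0.35 μM K-5 NanoBRET tracer for 2 h. Tracer displacement was read as the 610/450 nm BRET ratio; IC50 from 4-parameter fit.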

| SMILES | IC50 (Axl [1]) | IC50 (Axl [2]) |
| --- | --- | --- |
| O=C1CCCN1c1ccc(-c2n[nH]c3ncc(-c4ccc5c(c4)CC[C@@H](N4C6COCC4C6)CC5)cc23)cc1 [Example 122, 1-(4-{5-[(7S)-7-{3-oxa-6-azabicyclo[3.1.1]heptan-6-yl}-6,7,8,9-tetrahydro-5H-benzo[7]annulen-2-yl]-2H-pyrazolo[3,4-b]pyridin-3-yl}phenyl)pyrrolidin-2-one] | < 100 nM | < 100 nM |
| Cc1cc(-c2n[nH]c3ncc(-c4ccc5c(c4)CC[C@@H](N4CCCC4)CC5)cc23)cc(C)c1C(=O)N1CCNCC1 [Example 55, 1-(2,6-Dimethyl-4-{5-[(7S)-7-(pyrrolidin-1-yl)-6,7,8,9-tetrahydro-5H-benzo[7]annulen-2-yl]-1H-pyrazolo[3,4-b]pyridin-3-yl}benzoyl)piperazine] | < 100 nM | < 100 nM |
| c1cc2c(cc1-c1cnc3[nH]nc(-c4ccc(N5C[C@H]6C[C@@H]5CO6)cc4)c3c1)CC[C@@H](N1C3COCC1C3)CC2 [Example 126, (1R,4R)-5-(4-{5-[(7S)-7-{3-oxa-6-azabicyclo[3.1.1]heptan-6-yl}-6,7,8,9-tetrahydro-5H-benzo[7]annulen-2-yl]-2H-pyrazolo[3,4-b]pyridin-3-yl}phenyl)-2-oxa-5-azabicyclo[2.2.1]heptane] | < 100 nM | 100 to 1000 nM |
| CS(=O)(=O)c1ccc(-c2n[nH]c3ncc(-c4ccc5c(c4)CCN(C4CCCC4)CC5)cc23)cc1F [Example 32, 3-Cyclopentyl-7-(3-(3-fluoro-4-(methylsulfonyl)phenyl)-1H-pyrazolo[3,4-b]pyridin-5-yl)-2,3,4,5-tetrahydro-1H-benzo[d]azepine] | < 100 nM | 100 to 1000 nM |
| CC(C)(O)c1ccc(-c2n[nH]c3ncc(-c4ccc5c(c4)CCN(C4CCCC4)CC5)cc23)cn1 [Example 10, 2-{5-[5-(3-Cyclopentyl-2,3,4,5-tetrahydro-1H-3-benzazepin-7-yl)-1H-pyrazolo[3,4-b]pyridin-3-yl]pyridin-2-yl}propan-2-ol] | < 100 nM | 100 to 1000 nM |
| Cc1cc(-c2n[nH]c3ncc(-c4ccc5c(c4)CCC(N4CCCC4)CC5)cc23)ccc1C(=O)N1CCNCC1 (stereo not drawn) [Example 47, 1-(2-Methyl-4-{5-[7-(pyrrolidin-1-yl)-6,7,8,9-tetrahydro-5H-benzo[7]annulen-2-yl]-1H-pyrazolo[3,4-b]pyridin-3-yl}benzoyl)piperazine] | < 100 nM | < 100 nM |
| FC1CN(c2ccc(-c3c[nH]c4ncc(-c5ccc6c(c5)CC[C@@H](N5C7COCC5C7)CC6)cc34)cc2)C1 [Example 127, 6-[(7S)-2-{3-[4-(3-fluoroazetidin-1-yl)phenyl]-1H-pyrrolo[2,3-b]pyridin-5-yl}-6,7,8,9-tetrahydro-5H-benzo[7]annulen-7-yl]-3-oxa-6-azabicyclo[3.1.1]heptane] | < 100 nM | < 100 nM |
| O=C1OCCN1c1ccc(-c2n[nH]c3ncc(-c4ccc5c(c4)CC[C@@H](N4C6COCC4C6)CC5)cc23)cc1 [Example 121, 3-(4-{5-[(7S)-7-{3-oxa-6-azabicyclo[3.1.1]heptan-6-yl}-6,7,8,9-tetrahydro-5H-benzo[7]annulen-2-yl]-2H-pyrazolo[3,4-b]pyridin-3-yl}phenyl)-1,3-oxazolidin-2-one] | < 100 nM | < 100 nM |
| C[C@@H]1CCCN1C1(C)CCc2ccc(-c3cnc4[nH]cc(-c5ccc(S(=O)(=O)C6CC6)cc5)c4c3)cc2CC1 (stereo partly drawn) [Example 105, (2R)-1-(2-{3-[4-(Cyclopropanesulfonyl)phenyl]-1H-pyrrolo[2,3-b]pyridin-5-yl}-7-methyl-6,7,8,9-tetrahydro-5H-benzo[7]annulen-7-yl)-2-methylpyrrolidine] | < 100 nM | < 100 nM |
| O=S(=O)(c1ccc(-c2n[nH]c3ncc(-c4ccc5c(c4)CCN(CC4CCOC4)CC5)cc23)cc1)C1CC1 (stereo not drawn) [Example 27, 7-{3-[4-(Cyclopropanesulfonyl)phenyl]-1H-pyrazolo[3,4-b]pyridin-5-yl}-3-[(oxolan-3-yl)methyl]-2,3,4,5-tetrahydro-1H-3-benzazepine] | < 100 nM | 100 to 1000 nM |
| C[C@@H]1CCCN1C1CCc2ccc(-c3cnc4[nH]nc(-c5ccc(S(=O)(=O)C6CC6)cc5)c4c3)cc2C(C)(C)C1 (stereo partly drawn) [Example 109, (2R)-1-(2-{3-[4-(Cyclopropanesulfonyl)phenyl]-1H-pyrazolo[3,4-b]pyridin-5-yl}-9,9-dimethyl-6,7,8,9-tetrahydro-5H-benzo[7]annulen-7-yl)-2-methylpyrrolidine] | < 100 nM | < 100 nM |
| CC(C)(O)c1ccc(-c2n[nH]c3ncc(-c4ccc5c(c4)CCC4(CCCN4)CC5)cc23)cc1Cl (stereo not drawn) [Example 96, 2-[2-Chloro-4-(5-{5,6,8,9-tetrahydrospiro[benzo[7]annulene-7,2′-pyrrolidin]-3-yl}-1H-pyrazolo[3,4-b]pyridin-3-yl)phenyl]propan-2-ol] | < 100 nM | > 1000 nM |
| C[C@@H]1CCCN1C1(C)CCc2ccc(-c3cnc4[nH]nc(-c5ccc(S(=O)(=O)C(F)(F)F)cc5)c4c3)cc2CC1 (stereo partly drawn) [Example 8, (2R)-2-Methyl-1-{7-methyl-2-[3-(4-trifluoromethanesulfonylphenyl)-1H-pyrazolo[3,4-b]pyridin-5-yl]-6,7,8,9-tetrahydro-5H-benzo[7]annulen-7-yl}pyrrolidine] | < 100 nM | > 1000 nM |
| COCCNCc1ccc(-c2n[nH]c3ncc(-c4ccc5c(c4)CCC(C)(N4CCC[C@H]4C)CC5)cc23)cc1 (stereo partly drawn) [Example 108, (2-Methoxyethyl)({[4-(5-{7-methyl-7-[(2R)-2-methylpyrrolidin-1-yl]-6,7,8,9-tetrahydro-5H-benzo[7]annulen-2-yl}-1H-pyrazolo[3,4-b]pyridin-3-yl)phenyl]methyl})amine] | < 100 nM | 100 to 1000 nM |
| CCC1(N2CCC[C@H]2C)CCc2ccc(-c3cnc4[nH]nc(-c5ccc(S(=O)(=O)C6CC6)cc5)c4c3)cc2CC1 (stereo partly drawn) [Example 6, (2R)-1-(2-{3-[4-(Cyclopropanesulfonyl)phenyl]-1H-pyrazolo[3,4-b]pyridin-5-yl}-7-ethyl-6,7,8,9-tetrahydro-5H-benzo[7]annulen-7-yl)-2-methylpyrrolidine] | < 100 nM | 100 to 1000 nM |
| CC(C)(O)c1ccc(-c2n[nH]c3ncc(-c4ccc5c(c4)CCC(N4CCCC4)CC5)cc23)cn1 (stereo not drawn) [Example 9, 2-(5-{5-[7-(Pyrrolidin-1-yl)-6,7,8,9-tetrahydro-5H-benzo[7]annulen-2-yl]-1H-pyrazolo[3,4-b]pyridin-3-yl}pyridin-2-yl)propan-2-ol] | < 100 nM | < 100 nM |
| CN(C)C(=O)c1ccc(-c2n[nH]c3ncc(-c4ccc5c(c4)CC[C@@H](N4C6COCC4C6)CC5)cc23)cc1 [Example 125, N,N-Dimethyl-4-{5-[(7S)-7-{3-oxa-6-azabicyclo[3.1.1]heptan-6-yl}-6,7,8,9-tetrahydro-5H-benzo[7]annulen-2-yl]-2H-pyrazolo[3,4-b]pyridin-3-yl}benzamide] | < 100 nM | < 100 nM |
| CCS(=O)(=O)c1ccc(-c2n[nH]c3ncc(-c4ccc5c(c4)CC[C@@H](N4CCCC4)CC5)cc23)cc1 [Example 41, (S)-3-(4-(Ethylsulfonyl)phenyl)-5-(7-(pyrrolidin-1-yl)-6,7,8,9-tetrahydro-5H-benzo[7]annulen-2-yl)-1H-pyrazolo[3,4-b]pyridine] | < 100 nM | < 100 nM |
